For 91 compounds, melting point results are on record in a melting point compilation (Tetko et al.; mined from patent text by program, amines drawn as free bases though some values may be those of a salt).

As usually defined, the melting point is the temperature, or range, at which the solid turns liquid.

Consider `CC(C)(C)[Si](C)(C)Oc1ccc2cc(Br)ccc2c1`, for which the melting point fell in the range of 62 to 63 °C.
In turn, `COc1ccc(C(=O)Nc2ccccc2CCCC2CCCCN2C)cc1` (stereo unspecified) showed a melting point of 107 to 110 °C.
The same measure for `Nc1ccnn1-c1c(Cl)cc(C(F)(F)F)c(Cl)c1Cl`: 109 to 114 °C; for `CN1C(=O)N(c2ccc(Cl)cc2)S(=O)(=O)c2ccc(OCC(=O)O)cc21`: 228 to 230 °C.
As for `O=c1[nH]c2cc3ccccc3cc2[nH]c1=O`, the melting point was more than 250 °C.
With `CCCc1nc2c(N)nc(C)c(C)c2n1CCCCN(O)C(=O)Nc1ccccc1`, the melting point lay in the range of 159 to 160 °C.
Turning to `O=C(O)CN1C(=O)O[C@H](c2ccccc2)[C@@H]1c1ccccc1`, the melting point lay in the range of 161 to 163 °C.
The same measure for `COc1ccc2c(CN3CCC[C@H]3CO)cc3cc4c(cc3c2c1)OCO4`: 138 to 139 °C; for `OCc1ccc(OCc2ccccc2)cn1`: 66 to 68 °C.
The compound `Cc1ccccc1C(=O)Nc1ccc2oc3c(c2c1)CCCC3` yielded a melting point of 209 to 210 °C.
Regarding `Nc1ccccc1C(=O)c1ccc(OCc2ccccc2)cc1`, the melting point lay in the range of 99 to 101 °C.
Take `O=C(OCc1ccccc1)[C@H](CC(=O)N1C[C@H]2CCCC[C@H]2C1)Cc1ccccc1`: the melting point is 107 to 108 °C.
Regarding `CCN(CC)c1ccc2ccc(=O)oc2c1`, the melting point was in the range of 87.5 to 88 °C.
The figure for `Cc1cc(Cl)cc2c1OCCCC2NS(C)(=O)=O` (stereo unspecified) is 154 to 156 °C; for `Cc1c(NC(=O)c2ccc(OC[C@@H]3CCCO3)cc2F)ccc2cc(CNCC(C)C)cnc12` it is 133 to 134 °C; for `CCOC(=O)c1cn(-c2cc(NC=O)c(F)cc2F)c2c(F)c(F)c(F)c(NCc3ccccc3)c2c1=O` it is 151 to 156 °C.
The same measure for `CNS(=O)(=O)OCC(=O)N(c1c(C)ccc2ccccc12)C1CCOC1=O` (stereo unspecified): 190 to 194 °C.
The same measure for `CCc1c(-c2ccc(O)cc2)c2cc(COCCCN(C)C)c3cccc1n32`: 146 to 147 °C; for `CC(C)c1nn(-c2ccc(C(F)(F)F)cn2)cc1COc1cccc(CC(=O)O)c1`: 114 to 115 °C; for `COc1ccc(Oc2ccc(Cl)cc2[N+](=O)[O-])c(C=O)c1`: 127 to 128 °C.
`O=C(Nc1nc(C2CC2)no1)C1c2ccccc2Oc2ccccc21` gave a melting point of 275 °C.
Regarding `CC1(C)C(=O)Nc2cc3[nH]c(-c4cccs4)nc3cc21`, the melting point fell in the range of 332 to 336 °C.
For `O=c1c(Br)c[nH]c2c([N+](=O)[O-])cccc12`, the melting point fell in the range of 279 to 282 °C.
The same measure for `Cc1ccc(NCC2CCN(C(C)C)CC2)c(C(=O)Nc2ccc(Cl)cn2)c1`: 172 to 174 °C.
The figure for `CC(C)(COc1ccc(O)c(C(N)=O)c1)NCC(O)c1ccccc1` (stereo unspecified) is 121 to 123 °C.
The same measure for `CON(C)S(=O)(=O)NC(=O)Nc1nc(C)cc(C)n1`: 152 °C; for `O=C1OC(=O)c2cc3ncccc3c3cc([N+](=O)[O-])cc1c23`: more than 300 °C; for `CCCCCCC(C)(C)c1cc(O)c2c(c1)oc(=O)c1ccc(O)cc12`: 103 to 108 °C.
`COC(=O)[C@]1(C)CCc2c(C)c(OCc3ccccc3)c(C)c(C)c2O1` showed a melting point of 102 to 106 °C.
The same measure for `CN(C)C(=O)c1cn(Cc2ccccc2)c(=O)c2c1c1cc(F)ccc1n2C`: 192 to 193 °C; for `Nc1nonc1-c1nc2ccccc2n1CC(=O)c1ccccc1`: 202 to 204 °C; for `COc1ccc(C(=O)Nc2ccc(Cl)c(Cl)c2)cc1N`: 179 to 182 °C.
The same measure for `CN1CCC(=C2c3cc(CO)n(C)c3CCn3ccnc32)CC1`: 214 °C; for `CC(c1cc2cc(F)ccc2s1)N(O)C(N)=O` (stereo unspecified): 149 to 153 °C.
As to `CCOC(=O)c1cn(-c2nc(NC(C)(C)C)c(F)cc2F)c2c(C)c(F)c(F)cc2c1=O`, the melting point is 207 to 211 °C.
The figure for `CCOC(=O)CC[C@H](NC(=O)c1csc(CCCc2cc3c(=O)[nH]c(N)nc3[nH]2)c1)C(=O)OCC` is 81 to 82 °C; for `COC(=O)c1cccc2c1CN(c1c(F)cc3c(=O)c(C(=O)O)cn(-c4ccc(F)cc4)c3c1F)C2` it is 283 to 287 °C; for `O=C1COCC(c2ccc(F)c(F)c2)N1C(=O)NCCCN1CCC(O)(c2ccccc2)CC1` (stereo unspecified) it is 85 to 88 °C.
The same measure for `O=C(CCCCCl)Nc1nc2ccccc2[nH]1`: 161 to 163 °C.
The figure for `COc1cc(C(=O)O)ccc1Cc1cn(C)c2ccc(CCNC(=O)N3CCOCC3)cc12` is 221 to 226 °C; for `Cc1ccc(S(=O)(=O)C(CCl)Sc2cccc(C)c2)cc1` (stereo unspecified) it is 80 to 97 °C; for `C#CCOC(=O)CCC(C)(c1ccc(O)cc1)c1ccc(O)cc1` it is 99.5 to 101 °C.
As to `NNC(=S)NN=Cc1ccco1`, the melting point was 186 to 187 °C.
For the compound `Cc1cc(I)ccc1Nc1c(-c2nnc(N)o2)cc2c(ncn2C)c1F`, the melting point lay in the range of 258 to 260 °C.
In turn, `CCOC(=O)c1cc(-c2ccccc2)nc2c(N)cccc12` gave a melting point of 66 to 69 °C.
The figure for `N#Cc1ccc2c(c1)S(=O)(=O)c1ccc(Cl)cc1C=C2` is 228 to 230 °C; for `O=C(O)c1ccc(C(=O)O)c(OC(F)(F)C(F)OC(F)(F)C(F)(OC(F)(F)C(F)(F)C(F)(F)F)C(F)(F)F)c1` (stereo unspecified) it is 236 to 239 °C; for `CCOC(=O)c1cc(NCc2ccccc2)c(Nc2cccc(OC)c2)c(S(N)(=O)=O)c1` it is 149 to 152 °C.
Take `CC(O)COc1ccc(Oc2cccc(F)c2)cc1` (stereo unspecified): the melting point was in the range of 37 to 39 °C.
The same measure for `CCCN(C(N)=S)c1cccc2ccccc12`: 170 to 171 °C.
In turn, `FC(F)(F)c1nc(Cl)sc1C(=S)OCc1ccccc1` registered a melting point of 61 to 63 °C.
The same measure for `CCOC(=O)Nc1cc2nc(O)c(O)nc2cc1Cl`: more than 300 °C.
Turning to `COc1cccc(N2CCN(C(=O)[C@](C)(C#N)[C@H](c3ccccc3OC)c3cccc4ccccc34)CC2)c1`, the melting point was in the range of 147 to 148 °C.
The figure for `OCC1CN(Cc2ccccc2)CC=C1c1ccc(F)cc1` (single isomer, unassigned; (+)) is 68 to 68.5 °C.
For the compound `S=C(NCc1cccc2ccccc12)N1CCc2c([nH]c3ccccc23)C1c1ccc2c(c1)OCO2` (stereo unspecified), the melting point was 111 to 113 °C.
The same measure for `C[C@H](Cc1ccc(O)c(O)c1)NC(=O)OC(C)(C)C`: 116 to 118 °C.
In turn, `CC=Cc1cccc(C(=O)C=Cc2ccccc2)c1O` had a melting point of 95 to 98 °C.
In turn, `CC1(C)C=C(c2ccccn2)c2cc(Cl)ccc2OC1` returned a melting point of 100 °C.
The same measure for `COC(=O)C1=C(C(=O)OC)c2c(c3ccccc3n2C)CC1`: 113 °C; for `Cn1ncc(C(=O)N2CC(F)C2)c1C(=O)Nc1ccn2nc(-c3ccccc3)nc2c1`: 259 to 262 °C; for `O=C(NC(CO)(CO)CO)c1cc2ccnc(Cl)c2[nH]1`: 218 to 220 °C.
With `Nc1nc(CC(=O)Nc2cccc(C(F)(F)F)c2)cs1`, the melting point lay within 116 to 118 °C.
Turning to `Cc1ccccc1C=Cc1ccccc1`, the melting point is 92 to 93 °C.
The figure for `OCC(CO)(Cc1ccccc1)Cc1ccccc1` is 105 °C; for `Cc1cc(CCCOc2c(C)cc(C(=N)NO)cc2C)on1` it is 129 to 130 °C; for `CC(=S)OC1CCN(C(=O)OCc2ccc([N+](=O)[O-])cc2)CC1` it is 106 to 107 °C.
The figure for `CC(C)c1ccc(C(=O)NCCOc2ccc(C(=O)O)cc2)cc1` is 202 to 203 °C; for `COC(=O)C1=C(O)c2cc(Cl)ccc2S(=O)(=O)N1C` it is 201 °C; for `CCOc1cc([C@@H]2CC=CC[C@H]2[N+](=O)[O-])ccc1OC` (racemic) it is 66 to 67 °C.
The figure for `O=[N+]([O-])c1ccccc1CN1CCC(c2cc(-c3ccc(Cl)cc3)[nH]n2)CC1` is 150 to 151 °C; for `CCOC(=O)C(=O)Nc1cccc(NC(=O)C(=O)OCC)n1` it is 179 to 180 °C.
`CSc1nc(Cl)nc(Cl)n1` yielded a melting point of 57 to 59 °C.
The figure for `CCCCOc1cc(C)c(N=Nc2ccccc2)c(C)c1` is 47 to 47.5 °C; for `NCCCCCC(N)=O` it is 49 to 50 °C; for `O=C(O)CSc1cccc2c1S(=S)N=N2` (stereo unspecified) it is 207 to 209 °C.
With `CC#CCOCCCCCCCCCCCCOC(=O)C1CC1`, the melting point is 38 to 40 °C.
Compound `CCCN(CCC)C(C)(C)CC(C)(C)C` displayed a melting point of 43 to 45 °C.
Turning to `CCCCc1ccc(C(=O)CCCn2ccnc2)cc1`, the melting point was 125 to 128 °C.
As to `COc1ccc(-c2cn(C)cc(-c3ccc(OC)c(OC)c3)c2=O)cc1OC`, the melting point was in the range of 182 to 184 °C.
The figure for `Nc1ccc(OCCCCCCCCCCOc2ccc(N)cc2)cc1` is 70 to 71 °C.
The same measure for `NS(=O)(=O)c1ccc(C2CCNCC2)cc1`: 229 to 230 °C; for `CC(C)Oc1ccc2c(c1)N(C)C(=O)N(c1ccc(C(F)(F)F)cc1)S2(=O)=O`: 158 to 160 °C; for `CC(=O)Nc1ccc(C(=O)N(C)Cc2cccc(-c3ccc(CC4SC(=O)NC4=O)cc3)c2)cc1` (stereo unspecified): 207 °C.
The figure for `ON=C1COc2cc(OCc3c(F)cccc3F)ccc21` is 166 to 172 °C; for `CN1CCN(c2ccc(Nc3nc(N)c(C(=O)c4c(Cl)cc(Br)c(N)c4Cl)s3)cc2)CC1` it is 180 to 182 °C; for `NCCN1CCC(Nc2nc3cncnc3n2Cc2ccc(F)cc2)CC1` it is 146 °C.
In turn, `O=S(=O)(CC(O)(CBr)c1cccc(Br)c1)c1ccccc1` (stereo unspecified) registered a melting point of 132 °C.
`CC1=C(C(=O)OC(C)(C)C)C(c2ccccc2[N+](=O)[O-])C(C(=O)OC(C)(C)C)=C(C)N1`: the melting point is 159 to 161 °C.
Take `CC(=O)c1c(C)[nH]c(-c2ccccc2)c1N(C)C`: the melting point was in the range of 153 to 155 °C.
The same measure for `CC(C)c1cccc(C(C)C)c1NC(=O)NCC1(c2cc(C(F)(F)F)cc(C(F)(F)F)c2)CCCC1`: 165 to 168 °C.
The compound `O=C1CC(c2cccc(-n3ccnc3)c2)=Nc2cc(Cl)c(-c3ccc(F)cc3)cc2N1` came in with a melting point of 209 to 211 °C.
